Results on ten molecules are retold here after paper PMC3443238, “Synthesis and Antiangiogenic Activity of N-Alkylated Levamisole Derivatives” (PLoS ONE, 2012).

For experiment [1], the target named is T1, bovine kidney tissue non-specific alkaline phosphatase (TNAP) (Bos taurus, UniProt P09487).
T1 construct: alkaline phosphatase (0.01 U/mL) from human placenta or bovine kidneys; from tissue; host or cells: bovine kidneys
T1 sequence (P09487 18-499 limits assumed): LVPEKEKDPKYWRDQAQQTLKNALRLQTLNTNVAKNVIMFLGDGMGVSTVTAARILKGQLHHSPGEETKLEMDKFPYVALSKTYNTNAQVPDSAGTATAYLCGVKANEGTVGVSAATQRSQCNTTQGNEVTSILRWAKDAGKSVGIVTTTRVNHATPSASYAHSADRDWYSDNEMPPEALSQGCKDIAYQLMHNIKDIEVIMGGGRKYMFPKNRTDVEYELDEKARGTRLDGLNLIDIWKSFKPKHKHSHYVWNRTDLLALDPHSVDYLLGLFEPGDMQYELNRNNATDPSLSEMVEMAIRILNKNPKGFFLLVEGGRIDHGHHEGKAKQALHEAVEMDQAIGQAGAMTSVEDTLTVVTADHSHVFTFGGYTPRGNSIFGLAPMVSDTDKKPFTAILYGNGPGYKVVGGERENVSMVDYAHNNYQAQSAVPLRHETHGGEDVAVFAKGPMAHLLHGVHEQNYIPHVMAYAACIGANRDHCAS
As to the kind of experiment: Alkaline phosphatase assay (p-nitrophenyl phosphate), bovine kidney enzyme. The class given is biochemical. The method, then:
(§1) The levamisole derivatives were diluted to 2.5, 5 and 10 mM in DMSO. Samples (10 µL) and 90 µL solution of alkaline phosphatase (0.01 U/mL) from human placenta or bovine kidneys diluted in substrate buffer were added to a 96-well microtiter plate and incubated for 35 minutes at room temperature. Hereafter, 100 µL p-nitrophenyl phosphate (2 mg/mL) were added, and the plate was read at 405 nm with background subtraction at 650 nm on a Versamax Elisa reader (Molecular Devices, Sunnyvale, CA, USA) after 24 and 35 min. Results were obtained as the mean of double determinations. The EC50 values were read from the curve at half maximal absorbance.

Experiment [2] has as its target T2, human placenta alkaline phosphatase (HPAP) (Homo sapiens, UniProt P05187).
T2 construct: alkaline phosphatase (0.01 U/mL) from human placenta or bovine kidneys; from tissue; host or cells: human placenta
Put plainly: Alkaline phosphatase assay (p-nitrophenyl phosphate), human placenta enzyme. Format: biochemical. The method, then: as §1

Experiment [3] has as its system human umbilical vein endothelial cells (HUVECs) in co-culture with normal human dermal fibroblasts (NHDF). As to the kind of experiment: in vitro angiogenesis assay, HUVEC-NHDF co-culture, CD31 immunostaining. Format: cell-based. Conditions: for inhibition of angiogenesis compared with (S)-levamisole hydrochloride (1): Figure 5, Table 1. The method, then: The antiangiogenic effects of the compounds were determined in a previously developed assay, designed to evaluate the growth and differentiation of human umbilical vein endothelial cells (HUVECs) in co-culture with normal human dermal fibroblasts (NHDF). […] The cluster morphology known from (S)-levamisole, was also observed for tetramisole (2) (Figure 5B and Table 1), p-bromolevamisole (3) (Figure 5C and Table 1), and N-methyllevamisoles (7a, b), with the latter mentioned showing a slightly more pronounced effect (Figure 5E and F, Figure 6 A–D, Table 1). […] Compound 4 (Figure 5D and Table 1), on the other hand, inhibited the capillary network formation to give small cords exclusively, which is reminiscent of the effect of suramin (5) (Figure 5N and Table 1), another well-known angiogenesis inhibitor [44], [51].
Co-culture cell assays were performed according to a method described previously, [44]. Briefly, 10^3 NHDFs were cultured in each well of a 96-well microtiter plate in NHDF standard medium (100 μL, FGM-2 Bullet kit) at 37°C in an atmosphere containing 5% CO2. After 3 days the medium was removed and 10^3 HUVECs were seeded onto the NHDF in TFSM2 medium (135 μL). The samples of the individual compounds were prepared by weight and dissolved in a concentration of […] in DMSO, PBS, or Milli-Q water followed by pH adjustment, and sterile filtration through 0.22 μm filters. Medium, buffer controls or test samples of 15 µL were added to each well containing the HUVEC–NHDF co-culture and were incubated for 3 days. Experiments were repeated 2–4 times with identical results.
HUVEC and fibroblasts were stained with a CD31 antibody according to the method previously described, [44]. Briefly, the cells were washed with PBS, fixed with ethanol, blocked with TTN buffer, incubated with mouse anti-human CD31 diluted 1∶250 in TTN buffer, washed in TTN buffer and incubated with alkaline phosphatase-conjugated goat anti-mouse IgG diluted 1∶1000 in TTN buffer. Bound antibody was subsequently visualised with BCIP/NBT and inspected in an Olympus IX70 microscope and photographed with an Olympus DP12 digital camera (Magnification: 40x). Image analysis was carried out using the program AnalySIS (Soft Imaging Systems, Münster, Germany).

Experiment [4] deals with T3, sirtuin 1 (SIRT1) (Homo sapiens, UniProt Q96EB6).
T3 construct: purchased Biomol BML-AK555
As to the kind of experiment: SIRT1 inhibition assay (Fluor-de-Lys fluorogenic). Format: biochemical. Conditions: for inhibition of SIRT1 deacetylase activity: standard fluorogenic assay in vitro. As to the method:
The assay was performed according to protocols provided by the supplier (Biomol, BML-AK555). Briefly, the dose–response experiments were performed in black low binding NUNC 96-well microtiter plates. The dilution series were prepared in Milli-Q water from 100 mM DMSO stock solutions. Fluor-de-Lys SIRT1 substrate (250 μM), NAD^+ ([…]), and SIRT1 (2 U/well) were incubated in SIRT assay buffer prepared as described in the Biomol product sheets [Tris/Cl (50 mM), NaCl (137 mM), KCl (2.7 mM), MgCl2 (1 mM), pH 8.0, 1 mg/mL bovine serum albumin] in the presence or absence of the appropriate dilution of compound 7a or suramin. After 1 hour at 37°C, nicotinamide (2 mM) and developer (50 μL, 2×) were added, and the assay development was allowed to proceed for 15–30 minutes at room temperature, before the plate was read using a Tecan plate reader with excitation at 360 nm and emission at 460 nm. Two individual assays were performed in duplicate.

Experiment [5] concerns the target T3, sirtuin 1 (SIRT1). Put plainly: SIRT1 activation assay (Fluor-de-Lys fluorogenic). The class given is biochemical. Conditions: Figure 7. As to the method:
The assay was essentially performed as described above for the deacetylase inhibition, but with different concentrations of enzyme and substrate [Fluor-de-Lys SIRT1 substrate (25 μM), NAD^+ (25 μM), SIRT1 (1 U/well)], and using resveratrol as positive control. Two individual assays were performed in duplicate.

The subject of the next experiment is tumor growth. Conditions: 12 mg/kg in nude mice; cited from earlier work.
Setting [6] is: 1 mM, medium control 10.2, DMSO 8.4.

Structures can show the parent of a compound that is named as a salt.

T3 sequence (Q96EB6 whole entry): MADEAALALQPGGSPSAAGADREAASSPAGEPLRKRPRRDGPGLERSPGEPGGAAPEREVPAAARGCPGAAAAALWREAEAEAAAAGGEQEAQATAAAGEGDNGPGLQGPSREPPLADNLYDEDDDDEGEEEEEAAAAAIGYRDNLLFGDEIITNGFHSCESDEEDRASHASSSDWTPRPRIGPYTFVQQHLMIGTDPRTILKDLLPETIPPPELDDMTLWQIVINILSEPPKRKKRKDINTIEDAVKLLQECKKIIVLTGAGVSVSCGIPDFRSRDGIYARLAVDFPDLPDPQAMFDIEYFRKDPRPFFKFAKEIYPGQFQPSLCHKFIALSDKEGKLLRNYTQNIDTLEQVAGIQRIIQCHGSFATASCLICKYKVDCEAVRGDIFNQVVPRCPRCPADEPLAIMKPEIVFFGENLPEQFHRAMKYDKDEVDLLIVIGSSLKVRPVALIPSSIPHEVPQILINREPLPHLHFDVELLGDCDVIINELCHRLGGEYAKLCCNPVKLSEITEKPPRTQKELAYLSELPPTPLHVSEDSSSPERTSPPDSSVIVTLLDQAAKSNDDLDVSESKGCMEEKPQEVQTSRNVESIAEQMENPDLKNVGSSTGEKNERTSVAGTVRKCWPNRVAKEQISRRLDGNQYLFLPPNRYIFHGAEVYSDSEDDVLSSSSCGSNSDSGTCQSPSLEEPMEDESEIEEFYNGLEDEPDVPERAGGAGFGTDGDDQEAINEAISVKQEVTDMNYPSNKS
T2 sequence (P05187 23-506 limits assumed): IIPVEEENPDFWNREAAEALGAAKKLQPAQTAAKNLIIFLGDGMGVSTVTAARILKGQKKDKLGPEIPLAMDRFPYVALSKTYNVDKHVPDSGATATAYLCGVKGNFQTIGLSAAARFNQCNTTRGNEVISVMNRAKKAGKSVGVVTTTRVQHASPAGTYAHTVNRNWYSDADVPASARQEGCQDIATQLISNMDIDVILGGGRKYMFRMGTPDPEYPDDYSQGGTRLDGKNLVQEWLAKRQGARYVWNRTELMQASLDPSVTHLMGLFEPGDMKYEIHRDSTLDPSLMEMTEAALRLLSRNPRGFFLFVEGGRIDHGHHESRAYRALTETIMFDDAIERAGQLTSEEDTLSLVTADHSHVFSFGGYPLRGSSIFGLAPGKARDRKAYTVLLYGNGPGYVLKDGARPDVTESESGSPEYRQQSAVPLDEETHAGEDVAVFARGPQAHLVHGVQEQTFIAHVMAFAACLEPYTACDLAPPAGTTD

The term IC50 denotes the midpoint of a concentration-inhibition curve. Read a high IC50 as weaker potency. Take `Brc1ccc([C@H]2CN3CCSC3=N2)cc1` [Compound 3, (–)-p-bromolevamisole oxalate, reference compound]: the IC50 in experiment [1] was above 2 mM; in experiment [2], 0.7 mM. Moreover, the Grading result in experiment [3] (1 mM) is given as “++++ (clusters with area <4%)”. Besides, the Morphology result in experiment [3] (1 mM) was “Clusters”. Besides, the “Area % (percent of the area covered by HUVEC as observed by CD31 staining)” value in experiment [3] (setting [6]) was 3.4%. The “inhibition of angiogenesis compared with (S)-levamisole hydrochloride (1)” value in experiment [3] is “more potent than (S)-levamisole hydrochloride”.
Take `CC(C)[N+]1=C2SCCN2C[C@@H]1c1ccccc1` [Compound 9, (S)-N-Isopropyllevamisole trifluoroacetate]: the IC50 in experiment [1] is above 2 mM. This molecule showed an IC50 in experiment [2] above 2 mM. Besides, in experiment [3] (0.6 mM), the “Area % (percent of the area covered by HUVEC as observed by CD31 staining)” value was 2.6%, the Grading entry is listed as “+” and the Morphology result is on record as “Mixed”.
Turning to `C[N+]1=C2SCCN2C[C@@H]1c1ccccc1` [Compound 7a, N-methyllevamisole triflate], in experiment [1], the IC50 was 0.1 mM. Also, the “SIRT1 inhib. (1 μM)” value on sirtuin 1 (SIRT1) [4] (1 μM) was “Not active^b”. For the same molecule, the “deacetylation compared to the control wells” value at sirtuin 1 (SIRT1) [4] (at 10 μM and 100 μM, data not shown) is “elevated values of deacetylation”. Also, the “inhibition of SIRT1 deacetylase activity” value against sirtuin 1 (SIRT1) [4] is listed as “no inhibitory effect”. The “activation of SIRT1 compared to resveratrol” value at sirtuin 1 (SIRT1) [5] is on record as “ruled out interaction with this regulatory enzyme”. Moreover, the IC50 in experiment [2] is above 2 mM. For the same molecule, in experiment [3] (1 mM), the Grading entry was “++++ (clusters with area <4%)” and the Morphology result is reported as “Clusters”. Further, the “Area % (percent of the area covered by HUVEC as observed by CD31 staining)” value in experiment [3] (setting [6]) is reported as 2.8%. In addition, in experiment [3], the “inhibition of angiogenesis compared with (S)-levamisole hydrochloride (1)” value is on record as “more potent than (S)-levamisole hydrochloride”. In experiment [3] (titration experiments, Figure 6F), the “concentration at which the cluster-inducing effect is already exerted (titration)” value came out at 30 µM.
In turn, `c1ccc(C[N+]2=C3SCCN3C[C@@H]2c2ccccc2)cc1` [Compound 11b, N-benzyllevamisole trifluoroacetate] yielded an IC50 in experiment [1] above 2 mM. This molecule returned an IC50 in experiment [2] above 2 mM. Also, in experiment [3] (0.4 mM), the “Area % (percent of the area covered by HUVEC as observed by CD31 staining)” value was 4.0%, the Grading entry is “+” and the Morphology entry is on record as “Mixed”.
Consider `C[N+]1=C2SCCN2C[C@@H]1c1ccccc1` [Compound 7b, N-methyllevamisole trifluoroacetate], for which, in experiment [1], the IC50 was above 2 mM. Besides, the “inhibition of tissue non-specific alkaline phosphatase” value in experiment [1] (at 2 mM or higher) is recorded as “no inhibition”. Besides, the IC50 in experiment [2] is above 2 mM. Also, in experiment [3] (1 mM), the Grading entry is “++++ (clusters with area <4%)” and the Morphology result is “Clusters”. The “Area % (percent of the area covered by HUVEC as observed by CD31 staining)” value in experiment [3] (setting [6]) is recorded as 3.3%. In experiment [3], the “inhibition of angiogenesis compared with (S)-levamisole hydrochloride (1)” value is reported as “more potent than (S)-levamisole hydrochloride”.
For `c1ccc([C@H]2CN3CCSC3=[N+]2CC2CCCCC2)cc1` [Compound 12, (S)-N-Cyclohexylmethylenelevamisole], the IC50 in experiment [1] was above 2 mM. In experiment [2], this molecule gave an IC50 above 2 mM. In experiment [3] (0.1 mM), the “Area % (percent of the area covered by HUVEC as observed by CD31 staining)” value is given as 3.7%, the Grading result was “+” and the Morphology entry is on record as “Mixed”.
Regarding `c1ccc(C2CN3CCSC3=N2)cc1` (racemic) [Compound 2, (±)-levamisole, reference compound], the IC50 in experiment [1] was found to be 1 mM. In experiment [2], this molecule returned an IC50 of 1.2 mM. Besides, in experiment [3] (1 mM), the Grading result is reported as “++ (clusters with area >4%)” and the Morphology entry is “Clusters”. For the same molecule, the “Area % (percent of the area covered by HUVEC as observed by CD31 staining)” value in experiment [3] (setting [6]) was found to be 8.0%. For the same molecule, in experiment [3], the “inhibition of angiogenesis compared with (S)-levamisole hydrochloride (1)” value was “same effect as the enantiomerically pure parent compound”.
For `CC[N+]1=C2SCCN2C[C@@H]1c1ccccc1` [Compound 8a, N-ethyllevamisole iodide], the IC50 in experiment [1] was above 2 mM. The IC50 in experiment [2] is above 2 mM. In experiment [3] (0.7 mM), the “Area % (percent of the area covered by HUVEC as observed by CD31 staining)” value amounted to 5.2%, the Grading result is “+” and the Morphology result is given as “Mixed”.
`Cc1ccc(C(=O)Nc2ccc(S(=O)(=O)O)c3cc(S(=O)(=O)O)cc(S(=O)(=O)O)c23)cc1NC(=O)c1cccc(NC(=O)Nc2cccc(C(=O)Nc3cc(C(=O)Nc4ccc(S(=O)(=O)O)c5cc(S(=O)(=O)O)cc(S(=O)(=O)O)c45)ccc3C)c2)c1` [Compound 5, suramin, reference compound] gave a half-inhibitory concentration (IC50) in experiment [1] above 2 mM. Moreover, on sirtuin 1 (SIRT1) [4] (read-out: SIRT1 inhib. (1 μM)), the inhibition at 1 µM was above 90%. The “inhibition of SIRT1 deacetylase activity” value against sirtuin 1 (SIRT1) [4] is “potently inhibited SIRT1”. For the same molecule, the Morphology entry in experiment [3] (1 mM) is listed as “Cords”. Further, in experiment [3] (setting [6]), the “Area % (percent of the area covered by HUVEC as observed by CD31 staining)” value was determined as 2.2%.
`c1ccc([C@H]2CN3CCSC3=N2)cc1` [Compound 1, (S)-levamisole hydrochloride, reference compound]: in the experiment with tumor growth, the tumor growth inhibition entry was “significant tumor growth inhibition”. The molecule also came in with an IC50 in experiment [1] of 0.6 mM. The molecule also registered an IC50 in experiment [2] of 1.1 mM. In addition, in experiment [3] (1 mM), the Grading result is on record as “++ (clusters with area >4%)” and the Morphology entry was “Clusters”. Moreover, the “Area % (percent of the area covered by HUVEC as observed by CD31 staining)” value in experiment [3] (setting [6]) amounted to 7.5%.
